Our source for the T/C values is PubChem BioAssay AID330 (DTP/NCI, 2004).

For this test, the system named is P388 leukemia ip, CD2F1 mice, survival T/C. Put plainly: NCI In Vivo Anticancer Drug Screen. Data for tumor model P388 Leukemia (intraperitoneal) in CD2F1 (CDF1) mice. The note with it: endpoint: median survival time, higher = longer survival. A digest of the protocol: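 Mice carrying the transplanted tumor received test compound or vehicle. Survival was recorded in each group, and the value is the treated-group measurement divided by that of the vehicle-treated control group.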

[1] abbreviates: dose: 60.0 mg/kg/injection, schedule: Q01DX005 (ip), vehicle: saline with Tween-80.
Where [2] appears, read: dose: 120.0 mg/kg/injection, schedule: Q01DX005 (ip), vehicle: saline with Tween-80.
Setting [3] is: dose: 240.0 mg/kg/injection, schedule: Q01DX005 (ip), vehicle: saline with Tween-80.
Setting [4] is: dose: 100.0 mg/kg/injection, schedule: Q01DX009 (ip), vehicle: Klucel (hydroxypropylcellulose) (HPC).
Setting [5] is: dose: 200.0 mg/kg/injection, schedule: Q01DX009 (ip), vehicle: Klucel (hydroxypropylcellulose) (HPC).
[6] abbreviates: dose: 400.0 mg/kg/injection, schedule: Q01DX009 (ip), vehicle: Klucel (hydroxypropylcellulose) (HPC).
Setting [7] is: dose: 50.0 mg/kg/injection, schedule: Q01DX009 (ip), vehicle: saline.
The mark [8] stands for this setting: dose: 100.0 mg/kg/injection, schedule: Q01DX009 (ip), vehicle: saline.
The mark [9] stands for this setting: dose: 200.0 mg/kg/injection, schedule: Q01DX009 (ip), vehicle: saline.
The mark [10] stands for this setting: dose: 50.0 mg/kg/injection, schedule: Q01DX001 (ip), vehicle: Klucel (hydroxypropylcellulose) (HPC).
[11] abbreviates: dose: 100.0 mg/kg/injection, schedule: Q04DX003 (ip), vehicle: saline with Tween-80.
Where [12] appears, read: dose: 200.0 mg/kg/injection, schedule: Q04DX003 (ip), vehicle: saline with Tween-80.
Where [13] appears, read: dose: 400.0 mg/kg/injection, schedule: Q04DX003 (ip), vehicle: saline with Tween-80.
The mark [14] stands for this setting: dose: 100.0 mg/kg/injection, schedule: Q01DX009 (ip), vehicle: saline with Tween-80.
[15] abbreviates: dose: 200.0 mg/kg/injection, schedule: Q01DX009 (ip), vehicle: saline with Tween-80.
Where [16] appears, read: dose: 50.0 mg/kg/injection, schedule: Q01DX005 (ip), vehicle: saline.

Several values for one entry are separate records, joined by “and”; a condition that tells them apart may be missing. Equal values may be shown once. Inconclusive results and toxic doses are left out. Numbered stars: 1 amine (or outer) side, 2 acyl side, 3 side chain; on linkers, the order of the positions; unused ones are H or OH. Peptide text beside a SMILES is read from it. CO = O=C([*:1])[*:2]

As for `COCC(Cl)/C(N)=N\S(=O)(=O)c1c(C)cc(Cl)cc1Cl` (centres undefined), the T/C by setting is: under setting [1], 101 % of control; under setting [2], 100 % of control; under setting [3], 96 % of control.
As for `CCC(O)(c1ccccc1)C(O)c1ccccc1` (centres undefined), the T/C runs as follows: (dose: 25.0 mg/kg/injection, schedule: Q01DX009 (ip), vehicle: Klucel (hydroxypropylcellulose) (HPC)) 98 % of control; (dose: 50.0 mg/kg/injection, schedule: Q01DX009 (ip), vehicle: Klucel (hydroxypropylcellulose) (HPC)) 98 % of control; (dose: 50.0 mg/kg/injection, schedule: Q01DX009 (ip), vehicle: saline + alcohol) 102 % of control and 124 % of control; under setting [4], 97 % of control; (dose: 100.0 mg/kg/injection, schedule: Q01DX009 (ip), vehicle: saline + alcohol) 99 % of control and 123 % of control; under setting [5], 88 % of control. For the same compound, the T/C was 98 % of control (dose: 200.0 mg/kg/injection, schedule: Q01DX009 (ip), vehicle: saline + alcohol) and 96 % of control under setting [6].
In the case of `N#CNC(=NC12CC3CC(CC(C3)C1)C2)Nc1ccncc1`, the T/C (dose: 100.0 mg/kg/injection, schedule: Q04DX002 (ip), vehicle: saline with Tween-80) is 100 % of control and the T/C (dose: 400.0 mg/kg/injection, schedule: Q04DX002 (ip), vehicle: saline with Tween-80) was 109 % of control.
`O=c1c2cc3c(cc2c2cc([N+](=O)[O-])cc4c2n1CC4)OCO3`: the T/C reads like this: (dose: 25.0 mg/kg/injection, schedule: Q01DX009 (ip), vehicle: other) 98 % of control; (dose: 50.0 mg/kg/injection, schedule: Q01DX009 (ip), vehicle: other) 92 % of control; (dose: 100.0 mg/kg/injection, schedule: Q01DX009 (ip), vehicle: other) 90 % of control; (dose: 200.0 mg/kg/injection, schedule: Q01DX009 (ip), vehicle: other) 100 % of control; (dose: 400.0 mg/kg/injection, schedule: Q01DX009 (ip), vehicle: other) 104 % of control.
On to `O=[N+]([O-])[O-].OCCNCCNCC[OH2+].OCCNCCNCC[OH2+].[Co+2]`, for which the T/C is 95 % of control under setting [7], 104 % of control under setting [8] and 103 % of control under setting [9].
As to `O=C1NC2(CCCCC2)C(=O)N1CCCN1C(=O)NC2(CCCCC2)C1=O`, the T/C under setting [1] was 107 % of control, the T/C under setting [2] was 102 % of control and the T/C under setting [3] is 101 % of control.
With `CC(C)c1cc(=O)c2cc3[nH]c4ccccc4c3cc2[nH]1`, the T/C is 97 % of control (dose: 50.0 mg/kg/injection, schedule: Q01DX005 (ip), vehicle: saline with Tween-80); 87 % of control (dose: 100.0 mg/kg/injection, schedule: Q01DX005 (ip), vehicle: saline with Tween-80); 90 % of control (dose: 200.0 mg/kg/injection, schedule: Q01DX005 (ip), vehicle: saline with Tween-80).
For `[Cr+6].[NH-]CCC[NH-].[NH-]CCC[NH-].[NH-]CCC[NH-]`, the T/C is 95 % of control (dose: 200.0 mg/kg/injection, schedule: Q01DX001 (ip), vehicle: saline) and 90 % of control (dose: 400.0 mg/kg/injection, schedule: Q01DX001 (ip), vehicle: saline).
Consider `O=c1oc2cccc(O)c2s1`, for which the T/C is 97 % of control (dose: 12.5 mg/kg/injection, schedule: Q01DX001 (ip), vehicle: saline); 99 % of control (dose: 25.0 mg/kg/injection, schedule: Q01DX001 (ip), vehicle: saline); 106 % of control under setting [10]; 98 % of control (dose: 50.0 mg/kg/injection, schedule: Q01DX001 (ip), vehicle: saline).
Turning to `CC(=O)OCC(COC(C)=O)=C1N=C(c2ccccc2)OC1=O`, the T/C runs as follows: under setting [11], 100 % of control; under setting [12], 100 % of control; under setting [13], 100 % of control.
Take `CCC(/C=C/c1ccccc1)=N\Nc1ccc(Cl)cc1`: the T/C is 104 % of control under setting [1], 101 % of control under setting [2] and 98 % of control under setting [3].
As for `CN1CCN(C)B1N=S(C)(C)=O`, the T/C runs as follows: (dose: 50.0 mg/kg/injection, schedule: Q01DX005 (ip), vehicle: olive oil, sesame oil, peanut oil) 111 % of control; (dose: 100.0 mg/kg/injection, schedule: Q01DX005 (ip), vehicle: olive oil, sesame oil, peanut oil) 114 % of control.
Turning to `CCC(=O)OC1CCC2C3CCC4=CC(=O)CCC4(C)C3CCC12C` (centres undefined), the T/C is 95 % of control under setting [14]; 95 % of control under setting [11]; 104 % of control under setting [15]; 100 % of control under setting [12]; 95 % of control (dose: 400.0 mg/kg/injection, schedule: Q01DX009 (ip), vehicle: saline with Tween-80); 100 % of control under setting [13].
For the compound `COc1cccc(CCCC(=O)O)c1`, the T/C under setting [4] is 100 % of control, the T/C under setting [5] was 100 % of control and the T/C under setting [6] is 104 % of control.
In the case of `CC(C)C(NC(=O)C(CCCN=C(N)N)NC(=O)NC(Cc1ccccc1)C(=O)O)C(=O)NC(C=O)Cc1ccccc1` (stereo not drawn) ({Phe-CO}-Arg-Val-Phe-aldehyde; configuration not given here), the T/C was 95 % of control (dose: 8.25 mg/kg/injection, schedule: Q01DX005 (ip), vehicle: Klucel (hydroxypropylcellulose) (HPC)); 99 % of control (dose: 8.75 mg/kg/injection, schedule: Q01DX005 (ip), vehicle: Klucel (hydroxypropylcellulose) (HPC)); 92 % of control (dose: 16.5 mg/kg/injection, schedule: Q01DX005 (ip), vehicle: Klucel (hydroxypropylcellulose) (HPC)); 99 % of control (dose: 17.5 mg/kg/injection, schedule: Q01DX005 (ip), vehicle: Klucel (hydroxypropylcellulose) (HPC)); 93 % of control (dose: 33.0 mg/kg/injection, schedule: Q01DX005 (ip), vehicle: Klucel (hydroxypropylcellulose) (HPC)); 93 % of control (dose: 35.0 mg/kg/injection, schedule: Q01DX005 (ip), vehicle: Klucel (hydroxypropylcellulose) (HPC)). The T/C (dose: 66.0 mg/kg/injection, schedule: Q01DX005 (ip), vehicle: Klucel (hydroxypropylcellulose) (HPC)) was 92 % of control and the T/C (dose: 70.0 mg/kg/injection, schedule: Q01DX005 (ip), vehicle: Klucel (hydroxypropylcellulose) (HPC)) was 87 % of control.
On to `CC1(C)CC(OP(=[Se])(OC2CC(C)(C)N(O)C(C)(C)C2)c2ccccc2)CC(C)(C)N1O`, for which the T/C reads like this: (dose: 12.5 mg/kg/injection, schedule: Q01DX001 (ip), vehicle: Klucel (hydroxypropylcellulose) (HPC)) 102 % of control; (dose: 25.0 mg/kg/injection, schedule: Q01DX001 (ip), vehicle: Klucel (hydroxypropylcellulose) (HPC)) 102 % of control; under setting [10], 105 % of control.
For the compound `COc1ccc(CN2CCC[S+]2C)cc1` (centres undefined), the T/C under setting [16] was 95 % of control.
Take `CCOC(=O)N1CC2C=CC1C(C(C)=O)C2` (centres undefined): the T/C is, setting by setting: under setting [7], 110 % of control; under setting [8], 109 % of control; under setting [9], 109 % of control.
For the compound `C[CH2][Sn]([Cl])([Cl])[CH2]C`, the T/C was 104 % of control (dose: 1.56 mg/kg/injection, schedule: Q04DX003 (ip), vehicle: saline); 111 % of control and 113 % of control and 116 % of control (dose: 3.12 mg/kg/injection, schedule: Q04DX003 (ip), vehicle: saline); 118 % of control [middle of 5 runs] (dose: 6.25 mg/kg/injection, schedule: Q04DX003 (ip), vehicle: saline); 121 % of control and 101 % of control and 115 % of control (dose: 12.5 mg/kg/injection, schedule: Q04DX003 (ip), vehicle: saline); 153 % of control (dose: 25.0 mg/kg/injection, schedule: Q04DX003 (ip), vehicle: saline).
For `CCN(CC)CCNc1n[nH]c(=O)c2ccccc12`, the T/C is 104 % of control (dose: 50.0 mg/kg/injection, schedule: Q01DX009 (ip), vehicle: saline with Tween-80); 101 % of control under setting [14]; 95 % of control under setting [15].
Consider `CC(C)(C)N1COC(c2ccccc2)C1` (centres undefined), for which the T/C by setting is: under setting [16], 106 % of control; (dose: 100.0 mg/kg/injection, schedule: Q01DX005 (ip), vehicle: saline) 111 % of control.
With `O=C(O)CCCC(=O)c1ccccc1`, the T/C reads like this: (dose: 25.0 mg/kg/injection, schedule: Q01DX009 (ip), vehicle: saline) 105 % of control; under setting [7], 100 % of control; under setting [8], 101 % of control; under setting [9], 108 % of control.
